The supplement of paper PMC10307832

What was measured:
Experiment in all cases: relative viability (nuclei count vs DMSO), 5 days (fraction); higher = more cells survive
[1] = compound: C1CCC(CC1)N(CCNCCC2=C3C(=C(C=C2)O)NC(=O)CO3)C(=O)CCNCCC4=CC(=C(C=C4)Cl)Cl [AZ505] + O=C(c1cc(Cc2n[nH]c(=O)c3ccccc23)ccc1F)N1CCN(C(=O)C2CC2)CC1 [Olaparib] (partner 8 µM)
Outline: (§1)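 Dosing by pin tool came one day after lung cancer cell lines were seeded in 1536-well plates, using either one drug or a fixed anchor-drug dose plus five library-drug doses (not always all listed) in √10 steps. After 5 days, nuclei were counted on 4× images. Relative viability is treated-well nuclei count divided by vehicle-well nuclei count, and values are medians of duplicate plates.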

[2] = compound: Cn1c(=O)n(-c2ccc(C(C)(C)C#N)cc2)c2c3cc(-c4cnc5ccccc5c4)ccc3ncc21 [Dactolisib] + Cc1cc(Nc2cc(N3CCN(C)CC3)nc(Sc3ccc(NC(=O)C4CC4)cc3)n2)n[nH]1 [Tozasertib] (partner 0.1 µM)
Outline: as §1

[3] = compound: Cn1c(=O)n(-c2ccc(C(C)(C)C#N)cc2)c2c3cc(-c4cnc5ccccc5c4)ccc3ncc21 [Dactolisib] + Nc1ncn([C@H]2C[C@H](O)[C@@H](CO)O2)c(=O)n1 [Decitabine] (partner 2 µM)
Outline: as §1

[4] = compound: C1CCC(CC1)N(CCNCCC2=C3C(=C(C=C2)O)NC(=O)CO3)C(=O)CCNCCC4=CC(=C(C=C4)Cl)Cl [AZ505] + CS(=O)(=O)CCNCc1ccc(-c2ccc3ncnc(Nc4ccc(OCc5cccc(F)c5)c(Cl)c4)c3c2)o1 [Lapatinib] (partner 2 µM)
Outline: as §1

Cell Line | relative viability ([1]; first compound 0.08 µM) | relative viability ([1]; first compound 0.253 µM) | relative viability ([1]; first compound 0.8 µM) | relative viability ([1]; first compound 2.53 µM) | relative viability ([1]; first compound 8 µM) | relative viability ([2]; first compound 0.002 µM) | relative viability ([2]; first compound 0.006325 µM) | relative viability ([2]; first compound 0.02 µM) | relative viability ([2]; first compound 0.06325 µM) | relative viability ([2]; first compound 0.2 µM) | relative viability ([3]; first compound 0.002 µM) | relative viability ([3]; first compound 0.006325 µM) | relative viability ([3]; first compound 0.02 µM) | relative viability ([3]; first compound 0.06325 µM) | relative viability ([3]; first compound 0.2 µM) | relative viability ([4]; first compound 0.08 µM) | relative viability ([4]; first compound 0.253 µM) | relative viability ([4]; first compound 0.8 µM) | relative viability ([4]; first compound 2.53 µM) | relative viability ([4]; first compound 8 µM)
NCI-H2009 | 0.64 | 0.675 | 0.647 | 0.652 | 0.629 | 0.742 | 0.717 | 0.764 | 0.488 | 0.238 | 0.381 | 0.373 | 0.362 | 0.34 | 0.268 | 0.864 | 0.928 | 1.07 | 0.665 | 0.86
NCI-H2023 | 0.414 | 0.496 | 0.499 | 0.471 | 0.43 | 0.351 | 0.312 | 0.313 | 0.109 | 0.0881 | 0.224 | 0.225 | 0.218 | 0.115 | 0.0931 | 0.674 | 0.822 | 0.845 | 0.917 | 0.815
NCI-H2085 | 0.715 | 0.797 | 0.654 | 0.735 | 0.729 | 0.852 | 0.776 | 0.649 | 0.502 | 0.347 | 0.685 | 0.496 | 0.514 | 0.405 | 0.373 | 0.67 | 0.7 | 0.668 | 0.789 | 0.83
NCI-H2087 | 0.515 | 0.536 | 0.552 | 0.629 | 0.611 | 0.328 | 0.248 | 0.243 | 0.176 | 0.192 | 0.314 | 0.265 | 0.249 | 0.205 | 0.133 | 0.856 | 1.01 | 0.983 | 1.31 | 0.958
NCI-H2126 | 0.841 | 0.915 | 0.827 | 0.878 | 0.948 | 0.813 | 0.829 | 0.814 | 0.536 | 0.452 | 0.645 | 0.663 | 0.55 | 0.462 | 0.416 | 0.758 | 0.78 | 0.767 | 0.639 | 0.701
NCI-H2170 | 0.544 | 0.601 | 0.614 | 0.58 | 0.594 | 0.753 | 0.735 | 0.62 | 0.511 | 0.252 | 0.489 | 0.466 | 0.476 | 0.371 | 0.354 | 0.269 | 0.278 | 0.24 | 0.263 | 0.275
NCI-H2347 | 0.554 | 0.505 | 0.489 | 0.489 | 0.52 | 0.676 | 0.527 | 0.535 | 0.394 | 0.264 | 0.682 | 0.581 | 0.62 | 0.541 | 0.473 | 0.555 | 0.64 | 0.607 | 0.508 | 0.772
NCI-H2405 | 0.742 |  | 0.758 | 0.788 | 0.828 | 0.79 | 0.826 | 0.85 | 0.527 | 0.44 | 0.803 | 0.76 | 0.687 | 0.429 | 0.352 | 0.741 | 0.766 | 0.773 | 0.822 | 0.893
NCI-H3122 | 0.617 | 0.689 | 0.618 | 0.629 | 0.622 | 0.427 | 0.361 | 0.425 | 0.352 | 0.16 | 0.376 | 0.369 | 0.415 | 0.284 | 0.304 | 1.01 | 1.03 | 1.04 | 0.981 | 1.09
PC-3 [JPC-3] | 0.918 |  | 0.944 | 1.01 | 1.15 | 0.967 | 0.896 | 0.803 | 0.831 | 0.608 | 0.87 | 0.783 | 0.878 | 0.786 | 0.655 | 0.456 | 0.455 | 0.476 | 0.426 | 0.495
PC-14 | 0.302 | 0.255 | 0.248 | 0.324 | 0.241 | 0.576 | 0.679 | 0.629 | 0.215 | 0.125 | 0.333 | 0.222 | 0.261 | 0.161 | 0.138 | 0.316 | 0.296 | 0.336 | 0.411 | 0.319
RERF-LC-KJ | 0.947 | 0.934 | 0.995 | 0.91 | 0.842 | 0.535 | 0.551 | 0.599 | 0.279 | 0.397 | 0.752 | 0.726 | 0.644 | 0.316 | 0.443 | 0.767 | 0.923 | 0.846 | 0.87 | 0.795
SK-LU-1 | 0.268 | 0.364 | 0.349 | 0.314 | 0.326 | 0.324 | 0.307 | 0.302 | 0.245 | 0.176 | 0.523 | 0.72 | 0.6 | 0.44 | 0.388 | 0.477 | 0.651 | 0.578 | 0.537 | 0.712
SK-MES-1 | 0.682 | 0.694 | 0.662 | 0.603 | 0.719 | 0.989 | 0.84 | 0.876 | 0.32 | 0.264 | 0.43 | 0.362 | 0.369 | 0.251 | 0.231 | 0.406 | 0.434 | 0.499 | 0.473 | 0.445
SW 1573 | 0.391 | 0.493 | 0.425 | 0.468 | 0.467 | 0.153 | 0.2 | 0.232 | 0.154 | 0.0965 | 0.556 | 0.336 | 0.299 | 0.185 | 0.149 | 1.03 | 1.04 | 1.15 | 1.17 | 1.09
